The subject of assay [1] is PGC-1α. Particulars: neurons; Patent Literature 1; cited from earlier work.
The subject of assay [2] is Myogenin. Nature of the assay: Myogenin gene expression promoting effect (II) (Example 4). The following applies: C2C12 cells, 4-6 days, vs control. The assay is classed as cell-based, Mouse. The procedure:
(§1) Mouse myoblast cell line C2C12 cells (RIKEN BRC, RCB0987) were suspended in growth medium (Dulbecco's modified Eagle's Medium supplemented with 10% FBS, 100 units/ml of penicillin, 100 μg/ml of streptomycin), seeded in 24-well plates, and incubated in a 37° C., 5% CO2 incubator until the cell density reached 70-90%. […] After culturing the cells for 4-6 days while exchanging the medium once every 2 days, the medium was removed, and total RNA was extracted from the cells using the RNeasy Mini kit (QIAGEN).
(§2) A level of Myogenin mRNA expression, a marker gene for myotube cell differentiation, was evaluated by the following method:
Cell culture and treatment with the test substances, total RNA extraction and reverse transcription reaction were performed as in Example 2. Real-time PCR analysis was used to determine mRNA expression levels of Myogenin and β-actin as an internal standard. Statistical analysis was also performed in the same method as that of Example 1.

For assay [3], the system named is C2C12 cells. The assay is described as follows: Myotube cell diameter increasing effect (II) (Example 10). The assay is classed as cell-based, Mouse. Particulars: 5-6 days; for myotube cell diameter (photographs): FIG. 13; for myotube cell diameter (ImageJ, average of 50 cells): vs control, FIGS. 14 to 17. The procedure: Cell culture and addition of test substances were carried out by the same method as that of Example 2. The cells were cultured for 5-6 days while exchanging a differentiation inducing medium containing the test substances once every 2 days, and five positions near the center of the wells were then photographed at magnifications of 100.
Also, using ImageJ image analysis software, the diameters of ten myotube cells per a photograph were measured in order from the myotube cell having the largest diameter, and an average of 50 cells was determined to be the diameter of the myotube cell in each well. Statistical analysis was also performed by the same method as that of Example 2.

The test system of assay [4] is Myh7. Nature of the assay: Myh7 gene expression promoting effect (II) (Example 6). Particulars: C2C12 cells, 4-6 days, vs control. The assay is classed as cell-based, Mouse. The protocol: as §1
(§3) A level of Myh7 mRNA expression encoding a slow-muscle type myosin protein was evaluated using the following method:
Cell culture and treatment with the test substances, total RNA extraction and reverse transcription reaction were performed as in Example 2. Real-time PCR analysis was used to determine mRNA expression levels of Myh7 and β-actin as an internal standard. Statistical analysis was also performed in the same method as that of Example 1.

Assay [5] deals with Myh7. Nature of the assay: Myh7 gene expression promoting effect (I) (Example 5). Particulars: C2C12 cells, 5 mM disodium cytidylate, 4 days, vs control; FIG. 6. Format: cell-based, Mouse. The protocol:
as §3
(§4) Mouse myoblast cell line C2C12 cells were suspended in growth medium, seeded in 24-well plates, and incubated in a 37° C., 5% CO2 incubator until the cell density reached 70-90%. The growth medium was removed, and exchanged to a differentiation induction medium containing 5 mM disodium cytidylate or containing no cytidylic acid. The cells were cultured for 4 days while exchanging the medium once every 2 days, and the medium was then removed, and the total RNA extraction and reverse transcription reaction were performed as in Example 1. Real-time PCR analysis was used to determine mRNA expression levels of Myh7 and β-actin as an internal standard. Welch's t-test was used for statistical analysis. The threshold for statistical significance was set to 5%.

In assay [6] the test system is PGC-1α. Nature of the assay: PGC-1α gene expression promoting effect (II), real-time PCR (Example 2). Format: cell-based, Mouse. Particulars: C2C12 cells, 4-6 days, corrected by β-actin, vs control; FIG. 2. The protocol:
as §1
Using the total RNA as a template, a reverse transcription reaction solution was prepared using the ReverTra Ace® qPCR RT Kit (Toyobo). The reverse transcription reaction solution, GoTaq® qPCR Master Mix (Promega), and a real-time PCR device, Thermal Cycler Dice Real Time System (Takara Bio), were used to measure the mRNA expression levels of PGC-1α and β-actin as an internal standard. Analysis was performed by relative quantification, and the mRNA expression level was corrected using the β-actin mRNA expression level as an endogenous control. Statistical analysis was performed by t-test or Dunnett's multiple comparison test using the differentiation induction medium treatment group without the test substances as a control. The threshold of statistical significance was set to 5%.

Assay [7] has as its system C2C12 cells. The assay is described as follows: Mitochondrial DNA copy number increasing effect (II) (Example 8). Format: cell-based, Mouse. The following applies: 6 days, n=3, FIG. 10. The protocol: Cell culture and addition of test substances were carried out in the same method as that of Example 2. The cells were cultured for 6 days, the medium was then removed and total DNA was extracted from the cells using DNeasy Blood & Tissue kit (QIAGEN).
Extracted DNA, GoTaq® qPCR Master Mix (Promega) and a real-time PCR device, Thermal Cycler Dice Real Time System (Takara Bio), were used to determine COX2 (Cytochrome c oxidase subunit 2), a gene encoded in the mitochondrial DNA, and PPIA (Cyclophilin A), a gene encoded in […] DNA, as an internal standard.
The amount of COX2 present relative to the amount of PPIA present was evaluated as the mitochondrial DNA copy number. Statistical analysis was performed by the same method as that of Example 1. This Example was studied with n=3.

Assay [8] deals with C2C12 cells. The assay is described as follows: Mitochondrial DNA copy number increasing effect (I) (Example 7). The following applies: 1 mM or 5 mM disodium cytidylate, 6 days, n=3, FIG. 9. The assay is classed as cell-based, Mouse. The procedure:
Cell culture and addition of test substance were carried out by the same method as that of Example 1. The cells were cultured for 6 days while exchanging a differentiation induction medium containing the test substance once every 2 days, the medium was then removed and total DNA was extracted from the cells using DNeasy Blood & Tissue kit (QIAGEN). Extracted DNA, GoTaq® qPCR Master Mix (Promega) and a real-time PCR device, Thermal Cycler Dice Real Time System (Takara Bio), were used to determine COX2 (Cytochrome c oxidase subunit 2), a gene encoded in the mitochondrial DNA, and PPIA (Cyclophilin A), a gene encoded in […] DNA as an internal standard. The amount of COX2 present relative to the amount of PPIA present was evaluated as the mitochondrial DNA copy number. Statistical analysis was performed by the same method as that of Example 1. This Example was studied with n=3.

Assay [9] has as its system C2C12 cells. The assay is described as follows: Myotube cell diameter increasing effect (I) (Example 9). The assay is classed as cell-based, Mouse. The following applies: 6 days; for Average myotube cell diameter: control 53.9. The procedure:
Cell culture and addition of a test substance were carried out by the same method as that of Example 1. The cells were cultured for 6 days while exchanging a differentiation inducing medium containing the test substance once every 2 days, and five positions near the center of the wells were then photographed at magnifications of 100. Using ImageJ image analysis software, the diameters of ten myotube cells per a photograph were measured in order from the myotube cell having the largest diameter, and an average of 50 cells was determined to be the diameter of the myotube cell in each well. Statistical analysis was performed by the same method as that of Example 1. Photographs of representative examples of the respective groups are shown in FIG. 11, and the measured results of the average myotube cell diameter are shown in Table 1 and FIG. 12.

The test system of assay [10] is Myogenin. Nature of the assay: Myogenin gene expression promoting effect (I) (Example 3). Format: cell-based, Mouse. The following applies: C2C12 cells, disodium cytidylate, 6 days, vs control; FIG. 3. The protocol:
as §2
as §4, with “containing […] disodium cytidylate or […]” for “containing 5”, “for 6” for “for 4”, “2 days. Total” for “2 days, and the medium was then removed, and the total”, “of Myogenin” for “of Myh7”, “standard. Statistical analysis” for “standard. Welch's t-test”, “was performed in the same method as that of Example 1.” for “was used for statistical analysis. The threshold for statistical significance was set to 5%.”

Assay [11] has as its system PGC-1α. Nature of the assay: PGC-1α gene expression promoting effect (I), real-time PCR (Example 1). The following applies: C2C12 cells, 1 mM or 5 mM disodium cytidylate, 6 days, corrected by β-actin, vs control; FIG. 1. Format: cell-based, Mouse. The procedure: Mouse myoblast cell line C2C12 cells (RIKEN BRC, RCB0987) were suspended in growth medium (Dulbecco's modified Eagle's Medium supplemented with 10% FBS, 100 units/ml of penicillin, 100 μg/ml of streptomycin), seeded in 24-well plates, and incubated in a 37° C., 5% CO2 incubator until the cell density reached 70-90%. […] After culturing the cells for 6 days while exchanging the medium once every 2 days, the medium was removed, and total RNA was extracted from the cells using the RNeasy Mini kit (QIAGEN). Unless otherwise stated, each sample n=6 was used for the study, including the following Examples. Using the total RNA as a template, a reverse transcription reaction solution was prepared using the ReverTra Ace® qPCR RT Kit (Toyobo). The reverse transcription reaction solution, GoTaq® qPCR Master Mix (Promega), and a real-time PCR device, Thermal Cycler Dice Real Time System (Takara Bio), were used to measure mRNA expression levels of PGC-1α and β-actin as an internal standard. Analysis was performed by relative quantification, and mRNA expression levels were corrected using the β-actin mRNA expression level as an endogenous control. Dunnett's multiple comparison test was performed for statistical analysis. The threshold of statistical significance was set to 5%.
On the technique in general: Quantitative PCR measures a nucleic acid by following its amplification.

Another assay deals with mitochondria. Particulars: Patent Literature 3; cited from earlier work.

Turning to `CCc1oc(=O)c(Cc2c(O)c(C)c(CC)oc2=O)c(O)c1C` [Helipyrone A], the PGC-1α production result in the assay with PGC-1α [1] was “promotes PGC-1α production in neurons”.

Regarding `Nc1ccn([C@@H]2O[C@H](CO)[C@@H](O)[C@H]2O)c(=O)n1` [cytidine], in the assay on Myogenin [2] (FIG. 5), the “Myogenin mRNA expression level” value is reported as “excellent myotube cell differentiation promoting effect”. In addition, in the assay on C2C12 cells [3], the “myotube cell diameter (photographs)” value is “significantly increased”; the “myotube cell diameter (ImageJ, average of 50 cells)” value is “concentration-dependently and remarkably increased”. Further, the “Myh7 mRNA expression level” value with Myh7 [4] (FIG. 8) is reported as “markedly enhanced”.

For `Nc1ccn([C@@H]2O[C@H](COP(=O)(O)O)[C@@H](O)[C@H]2O)c(=O)n1` [cytidylic acid], the “Myh7 mRNA expression level” value with Myh7 [5] is “markedly enhanced”; in the assay with Myh7 [4] (FIG. 7), “remarkably enhanced”. Further, the “PGC-1α mRNA expression level” value was “concentration-dependently and remarkably enhanced” in the assay on PGC-1α [6]; “concentration-dependently and remarkably enhanced” with PGC-1α [11]. In addition, the “Myogenin mRNA expression level” value in the assay with Myogenin [2] (FIG. 4) is “remarkably enhanced”; with Myogenin [2] (FIG. 5), “remarkably enhanced”; in the assay on Myogenin [10] it was “concentration-dependently and remarkably enhanced”. The “mitochondrial DNA copy number (COX2 relative to PPIA)” value is “concentration-dependently and remarkably enhanced” in the assay on C2C12 cells [7]; “concentration-dependently and remarkably enhanced” with C2C12 cells [8]. Further, in the assay on C2C12 cells [3], the “myotube cell diameter (photographs)” value was “significantly increased”. For the same molecule, the “myotube cell diameter (ImageJ, average of 50 cells)” value in the assay on C2C12 cells [3] was “concentration-dependently and remarkably increased”. The “Average myotube cell diameter” value is given as 61.1 μm with C2C12 cells [9] (1 mM CMP) and 62.5 μm in the assay on C2C12 cells [9] (5 mM CMP). The myotube cell diameter entry in the assay on C2C12 cells [9] (vs control, FIGS. 11 and 12) is “concentration-dependently and remarkably increased”.

Consider `O=C(O)c1cc(C(=O)O)c2c(n1)C(=O)C(=O)c1cc(C(=O)O)[nH]c1-2` [pyrroloquinoline quinone], for which the mitochondria activating effects entry with mitochondria is “exhibits mitochondria activating effects”.

Turning to `O=c1ccn([C@@H]2O[C@H](CO)[C@@H](O)[C@H]2O)c(=O)[nH]1` [uridine], in the assay with C2C12 cells [3], the “myotube cell diameter (photographs)” value is “significantly increased”; the “myotube cell diameter (ImageJ, average of 50 cells)” value was “concentration-dependently and remarkably increased”.

With `O=c1ccn([C@@H]2O[C@H](COP(=O)(O)O)[C@@H](O)[C@H]2O)c(=O)[nH]1` [uridylic acid], the “PGC-1α mRNA expression level” value in the assay on PGC-1α [6] is “concentration-dependently and remarkably enhanced”. Besides, in the assay with Myogenin [2] (FIG. 4), the “Myogenin mRNA expression level” value is reported as “remarkably enhanced”. The “mitochondrial DNA copy number (COX2 relative to PPIA)” value with C2C12 cells [7] was “concentration-dependently and remarkably enhanced”. Moreover, in the assay on C2C12 cells [3], the “myotube cell diameter (photographs)” value is given as “significantly increased” and the “myotube cell diameter (ImageJ, average of 50 cells)” value is “significantly increased”. In the assay with Myh7 [4] (FIG. 7), the “Myh7 mRNA expression level” value was “remarkably enhanced”.

Source of the values: patent US20240115592A1, “PGC-1alpha EXPRESSION PROMOTING AGENT, MUSCLE-BUILDING AGENT AND MITOCHONDRIA ACTIVATING AGENT” (YAMASA CORPORATION, priority 2020, published 2024).
